Measurements taken from patent US20230151003A1, “COMPOUNDS AND METHODS OF USE” (Exelixis, Inc., priority 2020, published 2023).

Target: T1, Mer (Homo sapiens, UniProt Q12866)
T1 construct: host or cells: 293A cells (Thermo Fisher #R70507)
T1 sequence (Q12866 21-999): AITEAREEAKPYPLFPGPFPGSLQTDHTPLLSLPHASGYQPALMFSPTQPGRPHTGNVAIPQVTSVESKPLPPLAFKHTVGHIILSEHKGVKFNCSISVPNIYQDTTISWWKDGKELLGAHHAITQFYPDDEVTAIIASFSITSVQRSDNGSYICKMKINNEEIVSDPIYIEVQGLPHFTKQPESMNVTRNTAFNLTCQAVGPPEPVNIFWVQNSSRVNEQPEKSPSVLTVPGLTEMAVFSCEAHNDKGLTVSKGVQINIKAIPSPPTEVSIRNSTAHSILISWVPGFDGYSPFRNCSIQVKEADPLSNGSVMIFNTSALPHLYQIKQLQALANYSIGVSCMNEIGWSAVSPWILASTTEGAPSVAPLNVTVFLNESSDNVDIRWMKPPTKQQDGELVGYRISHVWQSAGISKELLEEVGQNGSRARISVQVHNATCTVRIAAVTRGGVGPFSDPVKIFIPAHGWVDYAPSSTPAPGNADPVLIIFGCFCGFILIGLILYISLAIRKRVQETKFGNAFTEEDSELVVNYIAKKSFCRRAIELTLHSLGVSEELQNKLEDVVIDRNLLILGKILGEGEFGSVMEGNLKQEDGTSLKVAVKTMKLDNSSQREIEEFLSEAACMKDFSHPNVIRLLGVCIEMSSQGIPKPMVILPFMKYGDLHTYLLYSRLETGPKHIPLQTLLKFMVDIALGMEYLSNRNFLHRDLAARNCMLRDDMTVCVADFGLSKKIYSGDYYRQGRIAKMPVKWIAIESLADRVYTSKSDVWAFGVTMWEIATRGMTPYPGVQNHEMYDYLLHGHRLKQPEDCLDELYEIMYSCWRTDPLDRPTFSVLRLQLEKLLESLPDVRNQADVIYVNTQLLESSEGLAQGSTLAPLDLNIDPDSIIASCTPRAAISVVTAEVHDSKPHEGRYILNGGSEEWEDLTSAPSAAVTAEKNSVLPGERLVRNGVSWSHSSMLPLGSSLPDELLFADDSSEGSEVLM
Test: Mer autophosphorylation ELISA in transient transfected 293A cells
Assay type: cell-based
Settings: Table 3 Cellular Activities; MERTK-transfected 293A cells, phospho-Mer ELISA
Procedure, shortened: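 Phospho-Mer quantified by ELISA in lysates of transiently MERTK-transfected 293A cells after 1 h exposure to an 8-point compound series, serum-free, 0.3% DMSO. Activity normalized between DMSO-treated (100%) and reference inhibitor-treated (0%) lysates; IC50 via 4-parameter nonlinear regression.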

Row | IC50 [nM] | Structure (SMILES)
1 | ≤ 100 | COc1cc2nccc(Oc3ccc(NC(=O)c4cnc(C)c(-c5cccs5)c4O)cc3F)c2nc1OC [Compound 90, N-[4-[(6,7-Dimethoxy-1,5-naphthyridin-4-yl)oxy]-3-fluoro-phenyl]-4-hydroxy-6-methyl-5-(2-thienyl)pyridine-3-carboxamide]
2 | ≤ 100 | COc1cnc2c(Oc3ccc(NC(=O)c4cnc(C)c(-c5ccc(C)o5)c4O)cc3F)ccnc2c1 [Compound 97, N-[3-Fluoro-4-[(7-methoxy-1,5-naphthyridin-4-yl)oxy]phenyl]-4-hydroxy-6-methyl-5-(5-methyl-2-furyl)pyridine-3-carboxamide]
3 | ≤ 100 | COc1cc2nccc(Oc3ccc(NC(=O)c4cnc(C)c(-c5ccco5)c4O)cc3F)c2nc1OC [Compound 89, N-[4-[(6,7-Dimethoxy-1,5-naphthyridin-4-yl)oxy]-3-fluorophenyl]-5-(furan-2-yl)-4-hydroxy-6-methylpyridine-3-carboxamide]
4 | ≤ 100 | COc1cc2nccc(Oc3ccc(NC(=O)c4c(C)ncc(-c5ccc(C)o5)c4O)cc3F)c2nc1OC [Compound 120, N-[4-[(6,7-Dimethoxy-1,5-naphthyridin-4-yl)oxy]-3-fluorophenyl]-4-hydroxy-2-methyl-5-(5-methylfuran-2-yl)pyridine-3-carboxamide]
5 | ≤ 100 | COc1cc2nccc(Oc3ccc(NC(=O)c4cnc(C)c(-c5ccoc5)c4O)cc3F)c2nc1OC [Compound 95, N-[4-[(6,7-Dimethoxy-1,5-naphthyridin-4-yl)oxy]-3-fluoro-phenyl]-5-(3-furyl)-4-hydroxy-6-methyl-pyridine-3-carboxamide]
6 | ≤ 100 | COc1cc2nccc(Oc3ccc(NC(=O)c4cnc(C)c(-c5ccc(C(C)C)o5)c4O)cc3F)c2nc1OC [Compound 154, N-[4-[(6,7-Dimethoxy-1,5-naphthyridin-4-yl)oxy]-3-fluorophenyl]-4-hydroxy-6-methyl-5-(5-propan-2-ylfuran-2-yl)pyridine-3-carboxamide]
7 | ≤ 100 | COc1cnc2c(Oc3ccc(NC(=O)c4cnc(C)c(-c5ccco5)c4O)cc3F)ccnc2c1 [Compound 96, N-[3-Fluoro-4-[(7-methoxy-1,5-naphthyridin-4-yl)oxy]phenyl]-5-(2-furyl)-4-hydroxy-6-methyl-pyridine-3-carboxamide]
8 | ≤ 100 | COc1cnc2c(Oc3ccc(NC(=O)c4cnc(C)c(-c5cccs5)c4O)cc3F)ccnc2c1 [Compound 100, N-[3-Fluoro-4-[(7-methoxy-1,5-naphthyridin-4-yl)oxy]phenyl]-4-hydroxy-6-methyl-5-(2-thienyl)pyridine-3-carboxamide]
9 | ≤ 100 | COc1cnc2c(Oc3ccc(NC(=O)c4cnc(C)c(-c5ccsc5)c4O)cc3F)ccnc2c1 [Compound 98, N-[3-Fluoro-4-[(7-methoxy-1,5-naphthyridin-4-yl)oxy]phenyl]-4-hydroxy-6-methyl-5-(3-thienyl)pyridine-3-carboxamide]
10 | ≤ 100 | CCc1ccc(-c2c(C)ncc(C(=O)Nc3ccc(Oc4ccnc5cc(OC)c(OC)nc45)c(F)c3)c2O)o1 [Compound 153, N-[4-[(6,7-Dimethoxy-1,5-naphthyridin-4-yl)oxy]-3-fluorophenyl]-5-(5-ethylfuran-2-yl)-4-hydroxy-6-methylpyridine-3-carboxamide]

Continued, compound first:

Row | Structure (SMILES) | IC50 [nM]
11 | COc1cc2nccc(Oc3ccc(NC(=O)c4cnc(C)c(-c5cscn5)c4O)cc3F)c2nc1OC [Compound 142, N-[4-[(6,7-Dimethoxy-1,5-naphthyridin-4-yl)oxy]-3-fluorophenyl]-4-hydroxy-6-methyl-5-(1,3-thiazol-4-yl)pyridine-3-carboxamide] | ≤ 100
12 | COc1cc2nccc(Oc3ccc(NC(=O)c4cc(Br)c(C)n(-c5ccc(F)cn5)c4=O)cc3F)c2nc1OC [Compound 55, 5-Bromo-N-[4-[(6,7-dimethoxy-1,5-naphthyridin-4-yl)oxy]-3-fluorophenyl]-1-(5-fluoropyridin-2-yl)-6-methyl-2-oxopyridine-3-carboxamide] | ≤ 100
13 | COc1cc2nccc(Oc3ccc(NC(=O)c4cnc(C)c(-c5cncs5)c4O)cc3F)c2nc1OC [Compound 141, N-[4-[(6,7-Dimethoxy-1,5-naphthyridin-4-yl)oxy]-3-fluorophenyl]-4-hydroxy-6-methyl-5-(1,3-thiazol-5-yl)pyridine-3-carboxamide] | ≤ 100
14 | COc1cc2nccc(Oc3ccc(NC(=O)c4cn(CCF)c(C)c(-c5ccsc5)c4=O)cc3F)c2nc1OC [Compound 332, N-[4-[(6,7-Dimethoxy-1,5-naphthyridin-4-yl)oxy]-3-fluorophenyl]-1-(2-fluoroethyl)-6-methyl-4-oxo-5-thiophen-3-ylpyridine-3-carboxamide] | ≤ 100
15 | COc1cc2nccc(Oc3ccc(NC(=O)c4c(C)n(C)c(C)c(-c5ccco5)c4=O)cc3F)c2nc1OC [Compound 160, N-[4-[(6,7-Dimethoxy-1,5-naphthyridin-4-yl)oxy]-3-fluorophenyl]-5-(furan-2-yl)-1,2,6-trimethyl-4-oxopyridine-3-carboxamide] | ≤ 100
16 | COc1cc2nccc(Oc3ccc(NC(=O)c4c(C)nc(C)c(-c5ccsc5)c4O)cc3F)c2nc1OC [Compound 106] | ≤ 100
17 | COc1cc2nccc(Oc3ccc(NC(=O)c4c(C)nc(C)c(-c5ccco5)c4O)cc3F)c2nc1OC [Compound 135, N-[4-[(6,7-Dimethoxy-1,5-naphthyridin-4-yl)oxy]-3-fluorophenyl]-5-(furan-2-yl)-4-hydroxy-2,6-dimethylpyridine-3-carboxamide] | ≤ 100
18 | COc1cc2nccc(Oc3cc(F)c(NC(=O)c4c(C)n(C)c(C)c(-c5ccco5)c4=O)cc3F)c2nc1OC [Compound 163, N-[4-[(6,7-Dimethoxy-1,5-naphthyridin-4-yl)oxy]-2,5-difluorophenyl]-5-(furan-2-yl)-1,2,6-trimethyl-4-oxopyridine-3-carboxamide] | ≤ 100
19 | COc1cc2nccc(Oc3ccc(NC(=O)c4c(C)ncc(-c5ccco5)c4O)cc3F)c2nc1OC [Compound 119, N-[4-[(6,7-Dimethoxy-1,5-naphthyridin-4-yl)oxy]-3-fluorophenyl]-5-(furan-2-yl)-4-hydroxy-2-methylpyridine-3-carboxamide] | ≤ 100
20 | COc1cnc2c(Oc3ccc(NC(=O)c4cn(CCF)c(C)c(-c5ccc(C)s5)c4=O)cc3F)ccnc2c1 [Compound 329, 1-(2-Fluoroethyl)-N-[3-fluoro-4-[(7-methoxy-1,5-naphthyridin-4-yl)oxy]phenyl]-6-methyl-5-(5-methylthiophen-2-yl)-4-oxopyridine-3-carboxamide] | ≤ 100
21 | COc1cc2nccc(Oc3ccc(NC(=O)c4c(C)nc(C)c(-c5sccc5C)c4O)cc3F)c2nc1OC [Compound 139, N-[4-[(6,7-Dimethoxy-1,5-naphthyridin-4-yl)oxy]-3-fluorophenyl]-4-hydroxy-2,6-dimethyl-5-(3-methylthiophen-2-yl)pyridine-3-carboxamide] | ≤ 100
22 | COc1nc2c(Oc3ccc(NC(=O)c4c(C)n(C)c(C)c(-c5ccco5)c4=O)cc3F)ccnc2cc1OCCC1CCC1 [Compound 337, N-[4-[[7-(2-Cyclobutylethoxy)-6-methoxy-1,5-naphthyridin-4-yl]oxy]-3-fluorophenyl]-5-(furan-2-yl)-1,2,6-trimethyl-4-oxopyridine-3-carboxamide] | ≤ 100
